In article PMC12587545, “Noncytotoxic polymyxin derivatives enhance antibiotic action against multidrug-resistant Gram-negative bacteria” (Antimicrobial Agents and Chemotherapy, 2025):
“And” between values parts separate entries of the source, which are not always exact repeats. Equal entries are not always repeated. “Also recorded” adds a separate entry of the source.

Tests used:
A. baumannii = assay: Checkerboard assay (antibiotic potentiation); format: cell-based, Acinetobacter baumannii
E. coli = assay: Checkerboard assay (antibiotic potentiation); format: cell-based, Escherichia coli; settings: for Interpretation: antibiotic + compound 1; for MICantibiotic + compound: antibiotic MIC with 8 µg/mL (5 µM) compound 1; for MICantibiotic: antibiotic alone; for Potentiation: of antibiotic by 8 µg/mL (5 µM) compound 1
K. pneumoniae = assay: Checkerboard assay (antibiotic potentiation); format: cell-based, Klebsiella pneumoniae; settings: for MICantibiotic + compound: antibiotic MIC with 8 µg/mL (5 µM) compound 1; for MICantibiotic: antibiotic alone; for Potentiation: of antibiotic by 8 µg/mL (5 µM) compound 1
E. cloacae = assay: Checkerboard assay (antibiotic potentiation); format: cell-based, Enterobacter cloacae; settings: E. cloacae 121887 (colistin-resistant)
[1] = tested on: MDR Gram-negative bacteria clinical isolates; assay: Checkerboard assay, summary over strains; format: cell-based; settings: of all 14 clinical isolates; number (%)
P. aeruginosa 259-96916 = assay: Time-kill kinetics assay
A. baumannii AB027 = assay: Time-kill kinetics assay
Procedure: Bactericidal and bacteriostatic activity correspond to a ≥ 3 log10 and a < 3 log10 decrease in bacterial load after 24 h relative to the starting inoculum, respectively ([39]).
The time- and concentration-dependent killing of the antibiotic/compound combinations was assessed using the time-kill kinetics assay by following a previously described protocol ([27][–][29]). Bacterial culture grown overnight was diluted in phosphate-buffered saline (PBS) to 0.5 McFarland turbidity and was further diluted 1:50 in LB. Bacterial cultures treated with varying concentrations of antibiotic alone, compound alone, or the combination of antibiotic and compound were incubated in a shaking incubator at 250 rpm and at 37°C. At designated time points, 100 µL aliquots were taken from the culture tubes, serially diluted in PBS, and plated on LB agar plates. The bacterial colonies were then counted after incubation of the plates for 18 h at 37°C.

[2] = A. baumannii ATCC 17978, 0% FBS, zoliflodacin + compound 1
[3] = A. baumannii ATCC 17978, [Mg2+] 25 mM, zoliflodacin + compound 1
[4] = A. baumannii ATCC 17978, [Mg2+] 0.4–0.5 mM, zoliflodacin + compound 1
[5] = A. baumannii ATCC 17978, antibiotic + compound 1
[6] = E. coli 94393 (colistin-resistant)
[7] = E. coli 94474 (colistin-resistant)
[8] = K. pneumoniae 113250 (colistin-resistant)
[9] = K. pneumoniae 116381, antibiotic + compound 1
[10] = 0.5 µg/mL zoliflodacin + 8 µg/mL (5 µM) compound 1
[11] = 8 µg/mL zoliflodacin + 8 µg/mL (5 µM) compound 1
[12] = monotherapy at 8 µg/mL, LB, 37°C, up to 24 h
[13] = zoliflodacin + compound 1, both 8 µg/mL, after 24 h

C[C@@H]1CN2c3c(cc4c(N5C(=O)OC[C@@H]5C)noc4c3F)CC3(C(=O)NC(=O)NC3=O)[C@H]2[C@H](C)O1 [Zoliflodacin]
Interpretation (A. baumannii; A. baumannii AB031, antibiotic + compound 1): Synergy (FIC indices of ≤0.5 is synergistic)
MICantibiotic + compound (A. baumannii; A. baumannii AB031, antibiotic MIC with 4 µg/mL (2 µM) compound 1): 4 µg/mL
MICantibiotic (A. baumannii; A. baumannii AB031, antibiotic alone): 128 µg/mL
Potentiation (A. baumannii; A. baumannii AB031, of antibiotic by 4 µg/mL (2 µM) compound 1): 32 fold
Potentiation (A. baumannii; A. baumannii ATCC 17978, 0% FBS, of zoliflodacin by 4 µg/mL compound 1): ≥128-fold
FIC index (A. baumannii; [2]): 0.258
Interpretation (A. baumannii; [2]): Synergy (FIC indices of ≤0.5 is synergistic)
MICantibiotic + compound (A. baumannii; A. baumannii ATCC 17978, 0% FBS, zoliflodacin MIC with 4 µg/mL compound 1): 0.031 µg/mL
MICantibiotic (A. baumannii; A. baumannii ATCC 17978, 0% FBS, zoliflodacin alone): 4 µg/mL
Potentiation (A. baumannii; A. baumannii ATCC 17978, 10% FBS, of zoliflodacin by 4 µg/mL compound 1): 32 fold
Interpretation (A. baumannii; A. baumannii ATCC 17978, 10% FBS, zoliflodacin + compound 1): Synergy (FIC indices of ≤0.5 is synergistic)
MICantibiotic + compound (A. baumannii; A. baumannii ATCC 17978, 10% FBS, zoliflodacin MIC with 4 µg/mL compound 1): 0.5 µg/mL
MICantibiotic (A. baumannii; A. baumannii ATCC 17978, 10% FBS, zoliflodacin alone): 16 µg/mL
Potentiation (A. baumannii; A. baumannii ATCC 17978, 25% FBS, of zoliflodacin by 4 µg/mL compound 1): 8 fold
Interpretation (A. baumannii; A. baumannii ATCC 17978, 25% FBS, zoliflodacin + compound 1): Synergy (FIC indices of ≤0.5 is synergistic)
MICantibiotic + compound (A. baumannii; A. baumannii ATCC 17978, 25% FBS, zoliflodacin MIC with 4 µg/mL compound 1): 2 µg/mL
MICantibiotic (A. baumannii; A. baumannii ATCC 17978, 25% FBS, zoliflodacin alone): 16 µg/mL
Potentiation (A. baumannii; A. baumannii ATCC 17978, 50% FBS, of zoliflodacin by 4 µg/mL compound 1): 2 fold
Interpretation (A. baumannii; A. baumannii ATCC 17978, 50% FBS, zoliflodacin + compound 1): Additive (0.5 < × ≤ 4 is additive)
MICantibiotic + compound (A. baumannii; A. baumannii ATCC 17978, 50% FBS, zoliflodacin MIC with 4 µg/mL compound 1): 32 µg/mL
MICantibiotic (A. baumannii; A. baumannii ATCC 17978, 50% FBS, zoliflodacin alone): 64 µg/mL
Potentiation (A. baumannii; A. baumannii ATCC 17978, [Mg2+] 25 mM, of zoliflodacin by 4 µg/mL compound 1): ≥64-fold
FIC index (A. baumannii; [3]): x < 0.063
Interpretation (A. baumannii; [3]): Synergy (FIC indices of ≤0.5 is synergistic)
MICantibiotic + compound (A. baumannii; A. baumannii ATCC 17978, [Mg2+] 25 mM, zoliflodacin MIC with 4 µg/mL compound 1): 4 µg/mL
MICantibiotic (A. baumannii; A. baumannii ATCC 17978, [Mg2+] 25 mM, zoliflodacin alone): >32 µg/mL
Potentiation (A. baumannii; A. baumannii ATCC 17978, [Mg2+] 0.4–0.5 mM, of zoliflodacin by 4 µg/mL compound 1): ≥128-fold
FIC index (A. baumannii; [4]): 0.258
Interpretation (A. baumannii; [4]): Synergy (FIC indices of ≤0.5 is synergistic)
MICantibiotic + compound (A. baumannii; A. baumannii ATCC 17978, [Mg2+] 0.4–0.5 mM, zoliflodacin MIC with 4 µg/mL compound 1): 0.031 µg/mL
MICantibiotic (A. baumannii; A. baumannii ATCC 17978, [Mg2+] 0.4–0.5 mM, zoliflodacin alone): 4 µg/mL
FIC index (A. baumannii; [5]): 0.258
Interpretation (A. baumannii; [5]): Synergy (FIC indices of ≤0.5 is synergistic)
Interpretation (A. baumannii; A. baumannii ATCC 17978, antibiotic + compound 3): Additive (0.5 < × ≤ 4 is additive)
MICantibiotic + compound (A. baumannii; A. baumannii ATCC 17978, antibiotic MIC with 8 µg/mL (5 µM) compound 3): 2 µg/mL
MICantibiotic (A. baumannii; A. baumannii ATCC 17978, antibiotic alone): 2 µg/mL and 4 µg/mL
Potentiation (A. baumannii; A. baumannii ATCC 17978, of antibiotic by 8 µg/mL (5 µM) compound 3): 1 fold
Interpretation (E. coli; [6]): Synergy (FIC indices of ≤0.5 is synergistic)
MICantibiotic + compound (E. coli; [6]): 2 µg/mL
MICantibiotic (E. coli; [6]): 64 µg/mL
Potentiation (E. coli; [6]): 32 fold
Interpretation (E. coli; [7]): Synergy (FIC indices of ≤0.5 is synergistic)
MICantibiotic + compound (E. coli; [7]): 4 µg/mL
MICantibiotic (E. coli; [7]): 64 µg/mL
Potentiation (E. coli; [7]): 16 fold
Interpretation (K. pneumoniae; K. pneumoniae 113250 (colistin-resistant), antibiotic + compound 1): Synergy (FIC indices of ≤0.5 is synergistic)
MICantibiotic + compound (K. pneumoniae; [8]): 4 µg/mL
MICantibiotic (K. pneumoniae; [8]): 128 µg/mL
Potentiation (K. pneumoniae; [8]): 32 fold
FIC index (K. pneumoniae; [9]): 0.063
Interpretation (K. pneumoniae; [9]): Synergy (FIC indices of ≤0.5 is synergistic)
MICantibiotic + compound (K. pneumoniae; K. pneumoniae 116381): 0.25 µg/mL
MICantibiotic (K. pneumoniae; K. pneumoniae 116381): 256 µg/mL
Potentiation (K. pneumoniae; K. pneumoniae 116381): ≥512-fold
Interpretation (E. cloacae; antibiotic + compound 1): Synergy (FIC indices of ≤0.5 is synergistic)
MICantibiotic + compound (E. cloacae; antibiotic MIC with 8 µg/mL (5 µM) compound 1): 4 µg/mL
MICantibiotic (E. cloacae; antibiotic alone): 32 µg/mL
Potentiation (E. cloacae; of antibiotic by 8 µg/mL (5 µM) compound 1): 8 fold
clinical isolates in which the antibiotic was synergized by compound 1 [1]: 12 (86%) strains
time-kill outcome (P. aeruginosa 259-96916; [10]): bacteriostatic effect
time-kill outcome (P. aeruginosa 259-96916; [11]): complete sterilization was achieved after 24 h
time-kill outcome (P. aeruginosa 259-96916; [12]): growth curve similar to that of untreated bacteria
decrease in bacterial load from the starting inoculum and from the most active monotherapy (P. aeruginosa 259-96916; [13]): ≥ 2 log10
time-kill outcome (A. baumannii AB027; [10]): appeared to eradicate the bacteria at 8 h; also recorded: slight regrowth after 24 h
time-kill outcome (A. baumannii AB027; [11]): appeared to eradicate the bacteria at 8 h
time-kill outcome (A. baumannii AB027; monotherapy at 0.5 µg/mL): growth curves similar to that of untreated bacteria
time-kill outcome (A. baumannii AB027; [12]): initially decreased bacterial loads, regrowth occurred after 8 h
decrease in bacterial load from the starting inoculum and from the most active monotherapy (A. baumannii AB027; [13]): ≥ 2 log10
